How the values were obtained:
B. cenocepacia IST4113 = assay: Broth microdilution MIC / growth inhibition; type: cell-based, Burkholderia cenocepacia; settings: 18 h at 37 °C, OD600nm; for MIC: broth microdilution in MHB, at least three independent replicates, range up to 200 mg/L
Protocol: (§1) The antibacterial activity of free CM4 and Synoeca was evaluated by determination of the minimum inhibitory concentration (MIC) against Gram-negative (E. coli HB101, P. aeruginosa ATCC10145, B. cenocepacia IST439, B. cenocepacia IST4113, and K. pneumoniae) and Gram-positive (S. aureus ATCC6538 and S. epidermidis) bacteria. The AMPs were incubated with bacterial suspensions and assessed for bacterial growth, with the MIC defined as the lowest concentration of AMPs that inhibited the visible growth of bacteria (Figure 5).
(§2) E. coli XL1-Blue and BL21(DE3) strains were used for the cloning and production steps, respectively. E. coli HB101, S. aureus ATCC6538, P. aeruginosa ATCC10145, B. cenocepacia IST439, B. cenocepacia IST4113, and clinical isolates of K. pneumoniae and S. epidermidis were used in the broth microdilution MIC assays. The clonal variants of B. cenocepacia were isolated, with a 3-year difference, from the same cystic fibrosis (CF) patient.
(§3) The antibacterial activity of the isolated AMPs was assessed via broth microdilution method to determine the MIC against clinically relevant Gram-negative and Gram-positive bacteria—E. coli HB101, P. aeruginosa ATCC10145, B. cenocepacia IST439, B. cenocepacia IST4113, K. pneumoniae isolate, S. aureus ATCC6538 and S. epidermidis isolate—following the European Committee on Antimicrobial Susceptibility Testing (EUCAST) and the Clinical Laboratory Standards Institute (CLSI) guidelines. A detailed description of the method is provided by Wiegand et al.. Briefly, stock solutions of 2 mg/mL of AMP in sterile mQ water were used for the preparation of two-fold serial dilutions in MHB, to obtain final testing concentrations within the range of 0.39–100 mg/L (200 mg/L for B. cenocepacia strains). For the MIC assays, 50 μL of protein solution and 50 μL of bacterial suspensions in MHB (1 × 10^6 CFUs/mL) were mixed in 96-well plates (Nunc™ Edge 2.0 96-well plates, Thermo Scientific™, Waltham, Massachusetts, EUA) and incubated for 18 h at 37 °C. Growth inhibition was assessed by measuring optical density at 600 nm (OD600nm). The MIC was determined as the lowest concentration of antimicrobial peptide that inhibited the visible growth of the testing bacteria. At least three independent replicates were performed for each peptide and bacterial strain. Data were analysed by GraphPad Prism 6 Software (GraphPad Software, Inc., La Jolla, CA, USA).

B. cenocepacia IST439 = assay: Broth microdilution MIC / growth inhibition; type: cell-based, Burkholderia cenocepacia; settings: 18 h at 37 °C, OD600nm; for MIC: broth microdilution in MHB, at least three independent replicates, range up to 200 mg/L
Protocol: as §1, §2, §3

S. aureus ATCC6538 = assay: Broth microdilution MIC / growth inhibition; type: cell-based, Staphylococcus aureus; settings: 18 h at 37 °C; for MIC: S. aureus ATCC6538, broth microdilution in MHB, OD600nm, at least three independent replicates, range 0.39–100 mg/L; for growth inhibition (complete inhibition): S. aureus, within tested range 0.39–100 mg/L
Protocol: as §1, §2, §3

S. epidermidis isolate = assay: Broth microdilution MIC / growth inhibition; type: cell-based, Staphylococcus epidermidis; settings: 18 h at 37 °C; for MIC: S. epidermidis clinical isolate, broth microdilution in MHB, OD600nm, at least three independent replicates, range 0.39–100 mg/L; for growth inhibition (complete inhibition): S. epidermidis, within tested range 0.39–100 mg/L
Protocol: as §1, §2, §3

P. aeruginosa ATCC10145 = assay: Broth microdilution MIC / growth inhibition; type: cell-based, Pseudomonas aeruginosa; settings: 18 h at 37 °C, OD600nm; for MIC: P. aeruginosa ATCC10145, broth microdilution in MHB, at least three independent replicates, range 0.39–100 mg/L; for mean value of growth inhibition: P. aeruginosa
Protocol: as §1, §2, §3

mammalian cells = settings: cited from earlier work
Source text: In this work, we report the use of A200 as a thermoresponsive protein tag for the production and purification of the following two AMPs, using Escherichia coli as a cell factory: ABP-CM4 (CM4), a 35 amino acid antimicrobial peptide, isolated from the haemolymph of the silkworm Bombyx mori; and Synoeca-MP (Synoeca), a 14 amino acid antimicrobial peptide, isolated from the venom of the Synoeca surinama wasp. CM4 is a member of the cecropin family of peptides, with antibacterial, antifungal, and antitumor activities, while showing no toxicity towards mammalian cells [[26],[28],[29], ...

E. coli HB101 = assay: Broth microdilution MIC / growth inhibition; type: cell-based, Escherichia coli; settings: 18 h at 37 °C; for MIC: E. coli HB101, broth microdilution in MHB, OD600nm, at least three independent replicates, range 0.39–100 mg/L; for growth inhibition (complete inhibition): E. coli, within tested range 0.39–100 mg/L
Protocol: as §1, §2, §3

K. pneumoniae isolate = assay: Broth microdilution MIC / growth inhibition; type: cell-based, Klebsiella pneumoniae; settings: 18 h at 37 °C, OD600nm; for MIC: K. pneumoniae clinical isolate, broth microdilution in MHB, at least three independent replicates, range 0.39–100 mg/L
Protocol: as §1, §2
as §3, with “For the MIC assays, 50 μL of protein solution and 50 μL of bacterial suspensions in MHB (1 × 10^6 CFUs/mL) were mixed in 96-well plates (Nunc™ Edge 2.0 96-well plates, Thermo Scientific™, Waltham, Massachusetts, EUA) and incubated for 18 h at 37 °C.” left out, “At least three independent replicates were performed for each peptide and bacterial strain.” left out

Substance	MIC (B. cenocepacia IST4113)	growth inhibition (B. cenocepacia IST4113; peptide 100.00 mg/L)	mean value of growth inhibition (B. cenocepacia IST4113; peptide 200.00 mg/L)	MIC (B. cenocepacia IST439)	growth inhibition (B. cenocepacia IST439; peptide 100.00 mg/L)	MIC (S. aureus ATCC6538)	growth inhibition (complete inhibition) (S. aureus ATCC6538)	MIC (S. epidermidis isolate)	growth inhibition (complete inhibition) (S. epidermidis isolate)	MIC (P. aeruginosa ATCC10145)	mean value of growth inhibition (P. aeruginosa ATCC10145; peptide 100.00 mg/L)	toxicity towards mammalian cells (mammalian cells; mammalian cells)	MIC (E. coli HB101)	growth inhibition (complete inhibition) (E. coli HB101)	MIC (K. pneumoniae isolate)	mean value of growth inhibition (P. aeruginosa ATCC10145; within tested range 0.39–100 mg/L)	cytotoxicity against mammalian cell lines (mammalian cells; mammalian cell lines)	mean value of growth inhibition (K. pneumoniae isolate; K. pneumoniae, within tested range 0.39–100 mg/L)
ABP-CM4	200.00 mg/L	around 75%	100%	~200.00 mg/L	around 75%	3.13 mg/L	100%	12.50 mg/L	100%	>100.00 mg/L	25%	no toxicity	50.00 mg/L	100%	50.00 mg/L	–	–	–
Synoeca-MP	12.50 mg/L	–	–	12.50 mg/L	–	1.56 mg/L	100%	6.25 mg/L	100%	>100.00 mg/L	–	–	25.00 mg/L	100%	>100.00 mg/L	lower than 5%	no significant cytotoxicity	lower than 5%
